Molecular target: Recombinant human LSD1 (Homo sapiens, UniProt O60341)
Assay: LSD1 inhibition assay (HTRF LSD1 Histone H3K4 mono-demethylation assay, me1->me0)
Assay type: biochemical
Settings: 20 nM recombinant human LSD1, 95 nM H3K4(me1) biotinylated peptide, 15 min preincubation, 60 min at 25° C., read-out: LSD1 inhibition IC50 (nM range)
Protocol: LSD1 biochemical activity was measured using the HTRF® LSD1 Histone H3K4 mono-demethylation assay (me1->me0). Briefly, the enzymatic buffer was prepared by addition of 50 mM Tris-HCl (Sigma cat #T2663-IL), 50 mM NaCl (ThermoFisher cat #AM9759) and 0.01% Tween 20 (ThermoFisher cat #J20605.AP) in distilled water (final pH 8.5). This buffer was supplemented with 10 μM FAD (Fisher Scientific cat #11411838) and 1 mM DTT (Sigma cat #D0632). For the assay, H3K4(me1) biotinylated peptide substrate (Anaspec, cat #64355) was added to provide a final assay concentration of 95 nM. The streptavidin-XL665 (Cisbio cat #610SAXLA) and H3K4 me0-Eu(K) antibody-cryptate (Cisbio, cat #61 KAOKAD) detection reagents were mixed according to the manufacturer's instructions. Test compounds were diluted in DMSO in a series of 10 semi-log step doses; 10 nL of each compound dose were dispensed in 384 well plates. Recombinant human LSD1 was diluted into enzymatic buffer to provide a final assay concentration of 20 nM and added to the tested compounds for 15 minutes. The reaction was started by addition of the substrate and incubated at 25° C. for 60 minutes. The detection reagents were added, and the plate was incubated in the dark for 90 minutes. Fluorescence was measured on an Envision 2103 plate reader with optical setup for […] in the HTRF mode. The ratio of acceptor and donor emission signals was calculated for each well. Percent inhibition values were calculated from the HTRF ratios at different doses and fitted to a 4-parameter logistic curve to determine IC50 values. […]

First: C[C@@]1(O)C[C@H]2CN(c3ccc(CC4CNCCO4)cc3-c3ccc(C#N)c(F)c3)C[C@H]2C1 (mixture of isomers) [Example 114, 2′-[(3aR,5S,6aS)-5-hydroxy-5-methyl-octahydrocyclopenta[c]pyrrol-2-yl]-3-fluoro-5′-[(morpholin-2-yl)methyl]-[1,1′-biphenyl]-4-carbonitrile]
Second: CC1(C)CN(c2ccc(CN3[C@@H]4CC[C@H]3[C@@H](N)C4)cc2-c2ccc(C#N)c(F)c2)C1 (racemic) [Example 206, 5'-{[(1S,2S,4R)-2-amino-7-azabicyclo[2.2.1]heptan-7-yl]methyl}-2'-(3,3-dimethylazetidin-1-yl)-3-fluoro-[1,1'-biphenyl]-4-carbonitrile]
The IC50 of the first is higher: 100 to 1000 nM for the first, 10 to 25 nM for the second.

Compared with N#Cc1ccc(-c2cccc(CN3[C@@H]4CC[C@H]3[C@@H](N)C4)c2-c2ccns2)cc1 (racemic) [Example 170, 3'-{[(1S,2S,4R)-2-amino-7-azabicyclo[2.2.1]heptan-7-yl]methyl}-2'-(1,2-thiazol-5-yl)-[1,1'-biphenyl]-4-carbonitrile], N#Cc1ccc(-c2cccc(CN3[C@@H]4CC[C@H]3[C@@H](N)C4)c2C2CC2)cc1 (racemic) [Example 191, 3'-{[(1S,2S,4R)-2-amino-7-azabicyclo[2.2.1]heptan-7-yl]methyl}-2'-cyclopropyl-[1,1'-biphenyl]-4-carbonitrile] is higher in IC50: 10 to 25 nM for the first, 25 to 100 nM for the second. The first is the more potent here.

First: CN[C@H]1C[C@H]2CC[C@@H]1N2Cc1cccc(-c2ccc(C#N)c(F)c2)c1C1CC1 (racemic) [Example 175]
Second: N#Cc1ccc(-c2cccc(CN3[C@@H]4CC[C@H]3[C@@H](N)C4)c2C2CC2)cc1F (racemic) [Example 176, 3'-{[(1S,2S,4R)-2-amino-7-azabicyclo[2.2.1]heptan-7-yl]methyl}-2'-cyclopropyl-3-fluoro-[1,1'-biphenyl]-4-carbonitrile]
The IC50 of the first is lower: 10 to 25 nM for the first, 25 to 100 nM for the second.

First: N#Cc1ccc(-c2cccc(CN3[C@@H]4CC[C@H]3[C@@H](N)C4)c2OC(F)F)cc1F (racemic) [Example 179, 3'-{[(1S,2S,4R)-2-amino-7-azabicyclo[2.2.1]heptan-7-yl]methyl}-2'-(difluoromethoxy)-3-fluoro-[1,1'-biphenyl]-4-carbonitrile]
Second: CC(C)Oc1c(CN2[C@@H]3CC[C@H]2[C@@H](N)C3)cccc1-c1ccc(C#N)c(F)c1 (racemic) [Example 213]
The IC50 of the first is lower: 10 to 25 nM for the first, 25 to 100 nM for the second.

COc1c(CN2[C@@H]3CC[C@H]2[C@@H](N)C3)cccc1-c1ccc(C#N)c(F)c1 (racemic) [Example 180, 3'-{[(1S,2S,4R)-2-amino-7-azabicyclo[2.2.1]heptan-7-yl]methyl}-3-fluoro-2'-methoxy-[1,1'-biphenyl]-4-carbonitrile] and CC(C)c1c(CN2[C@@H]3CC[C@H]2[C@@H](N)C3)cccc1-c1ccc(C#N)c(F)c1 (racemic) [Example 220, 3'-{[(1S,2S,4R)-2-amino-7-azabicyclo[2.2.1]heptan-7-yl]methyl}-3-fluoro-2'-(propan-2-yl)-[1,1'-biphenyl]-4-carbonitrile] fall in the same range of IC50: 25 to 100 nM for the first, 25 to 100 nM for the second.

N#Cc1ccc(-c2ccc(F)c(CN3[C@@H]4CC[C@H]3[C@@H](N)C4)c2C2CC2)cc1F (racemic) [Example 181, N[C@@H]1C[C@@H]2CC[C@H]1N2Cc3c(F)ccc(c4ccc(C#N)c(F)c4)c3C5CC5] and N#Cc1ccc(-c2cccc(CN3[C@@H]4CC[C@H]3[C@@H](N)C4)c2C2CCC2)cc1F (racemic) [Example 218, 3'-{[(1S,2S,4R)-2-amino-7-azabicyclo[2.2.1]heptan-7-yl]methyl}-2'-cyclobutyl-3-fluoro-[1,1'-biphenyl]-4-carbonitrile] fall in the same range of IC50: 10 to 25 nM for the first, 10 to 25 nM for the second.

N#Cc1ccc(-c2cccc(CN3[C@@H]4CC[C@H]3[C@@H](N)C4)c2C(F)(F)F)cc1F (racemic) [Example 200, 3'-{[(1S,2S,4R)-2-amino-7-azabicyclo[2.2.1]heptan-7-yl]methyl}-3-fluoro-2'-(trifluoromethyl)-[1,1'-biphenyl]-4-carbonitrile] and N#Cc1ccc(-c2cccc(CN3[C@@H]4CC[C@H]3[C@@H](N)C4)c2N2CCC2)cc1F (racemic) [Example 203, 3'-{[(1S,2S,4R)-2-amino-7-azabicyclo[2.2.1]heptan-7-yl]methyl}-2'-(azetidin-1-yl)-3-fluoro-[1,1'-biphenyl]-4-carbonitrile] fall in the same range of IC50: 25 to 100 nM for the first, 25 to 100 nM for the second.

First: N#Cc1ccc(-c2ccc(F)c(CN3[C@@H]4CC[C@H]3[C@@H](N)C4)c2-c2ccns2)cc1F (racemic) [Example 207, 3'-{[(1S,2S,4R)-2-amino-7-azabicyclo[2.2.1]heptan-7-yl]methyl}-3,4'-difluoro-2'-(1,2-thiazol-5-yl)-[1,1'-biphenyl]-4-carbonitrile]
Second: N#Cc1ccc(-c2cccc(CN3[C@@H]4CC[C@H]3[C@@H](N)C4)c2-c2cccs2)cc1F (racemic) [Example 243, 3'-{[(1S,2S,4R)-2-amino-7-azabicyclo[2.2.1]heptan-7-yl]methyl}-3-fluoro-2'-(thiophen-2-yl)-[1,1'-biphenyl]-4-carbonitrile]
The IC50 of the first is lower: less than 10 nM for the first, 25 to 100 nM for the second. The first is the more potent here.

COCC1CCN(c2ccc(CN3[C@@H]4CC[C@H]3[C@@H](N)C4)cc2-c2ccc(C#N)c(F)c2)CC1 (racemic) [Example 209, 5'-{[(1S,2S,4R)-2-amino-7-azabicyclo[2.2.1]heptan-7-yl]methyl}-3-fluoro-2'-[4-(methoxymethyl)piperidin-1-yl]-[1,1'-biphenyl]-4-carbonitrile] and N#Cc1ccc(-c2cc(CN3[C@@H]4CC[C@H]3[C@@H](N)C4)ccc2N2CCC(CF)CC2)cc1F (racemic) [Example 235, 5'-{[(1S,2S,4R)-2-amino-7-azabicyclo[2.2.1]heptan-7-yl]methyl}-3-fluoro-2'-[4-(fluoromethyl)piperidin-1-yl]-[1,1'-biphenyl]-4-carbonitrile] fall in the same range of IC50: 10 to 25 nM for the first, 10 to 25 nM for the second.

COc1ccc(-c2ccc(CN3[C@@H]4CC[C@H]3[C@@H](N)C4)cc2-c2ccc(C#N)c(F)c2)cc1F (racemic) [Example 222, 4-(4-{[(1S,2S,4R)-2-amino-7-azabicyclo[2.2.1]heptan-7-yl]methyl}-3'-fluoro-4'-methoxy-[1,1'-biphenyl]-2-yl)-2-fluorobenzonitrile] and COc1ccc(-c2ccc(CN3[C@@H]4CC[C@H]3[C@@H](N)C4)cc2-c2ccc(C#N)c(F)c2)cn1 (racemic) [Example 230, 5'-{[(1S,2S,4R)-2-amino-7-azabicyclo[2.2.1]heptan-7-yl]methyl}-3-fluoro-2'-(6-methoxypyridin-3-yl)-[1,1'-biphenyl]-4-carbonitrile] fall in the same range of IC50: 10 to 25 nM for the first, 10 to 25 nM for the second.

N#Cc1ccc(-c2cc(CN3[C@@H]4CC[C@H]3[C@@H](N)C4)ccc2N2CCC3(CCCO3)CC2)cc1F (racemic) [Example 224, 5'-{[(1S,2S,4R)-2-amino-7-azabicyclo[2.2.1]heptan-7-yl]methyl}-3-fluoro-2'-{1-oxa-8-azaspiro [4.5]decan-8-yl}-[1,1'-biphenyl]-4-carbonitrile] and COC1(C)CCN(c2ccc(CN3[C@@H]4CC[C@H]3[C@@H](N)C4)cc2-c2ccc(C#N)c(F)c2)CC1 (racemic) [Example 232, 5'-{[(1S,2S,4R)-2-amino-7-azabicyclo[2.2.1]heptan-7-yl]methyl}-3-fluoro-2'-(4-methoxy-4-methylpiperidin-1-yl)-[1,1'-biphenyl]-4-carbonitrile] fall in the same range of IC50: 10 to 25 nM for the first, 10 to 25 nM for the second.

First: C[C@]1(N)C[C@H]2CC[C@@H]1N2Cc1cccc(-c2ccc(C#N)c(F)c2)c1C1CC1 (racemic) [Example 229, 3'-{[(1S,2S,4R)-2-amino-2-methyl-7-azabicyclo[2.2.1]heptan-7-yl]methyl}-2'-cyclopropyl-3-fluoro-[1,1'-biphenyl]-4-carbonitrile]
Second: N#Cc1ccc(-c2cccc(CN3[C@@H]4CC[C@H]3[C@@H](N)C4)c2N2CCC(F)CC2)cc1F (racemic) [Example 241, 3'-{[(1S,2S,4R)-2-amino-7-azabicyclo[2.2.1]heptan-7-yl]methyl}-3-fluoro-2'-(4-fluoropiperidin-1-yl)-[1,1'-biphenyl]-4-carbonitrile]
The IC50 of the first is lower: 25 to 100 nM for the first, 100 to 1000 nM for the second.

First: N#Cc1ccc(-c2cc(CN3[C@@H]4CC[C@H]3[C@@H](N)C4)ccc2OC[C@@H]2CCCOC2)cc1F (racemic) [Example 231, 5'-{[(1S,2S,4R)-2-amino-7-azabicyclo[2.2.1]heptan-7-yl]methyl}-3-fluoro-2'-{[(3R)-oxan-3-yl]methoxy}-[1,1'-biphenyl]-4-carbonitrile]
Second: N#Cc1ccc(-c2cccc(CN3[C@@H]4CC[C@H]3[C@@H](N)C4)c2-c2ccsc2)cc1F (racemic) [Example 244, 3'-{[(1S,2S,4R)-2-amino-7-azabicyclo[2.2.1]heptan-7-yl]methyl}-3-fluoro-2'-(thiophen-3-yl)-[1,1'-biphenyl]-4-carbonitrile]
The IC50 of the first is lower: 10 to 25 nM for the first, 25 to 100 nM for the second. The first is the more potent here.
